According to EP0279263B1, “Indole, benzofuran, benzothiophene containing lipoxygenase inhibiting compounds” (ABBOTT LABORATORIES, priority 1987, dated 1988):

The compounds below were run against T1, 5-lipoxygenase (Rattus norvegicus, UniProt P12527) (assay: Lipoxygenase IC50 determination (5-lipoxygenase inhibitory activity, RBL-1 cell supernatant)). Details: 20,000xg supernatant from homogenized RBL-1 cells, radiolabelled arachidonic acid, 2% DMSO vehicle.
T1 construct: 20,000xg supernatant from 6x10⁴ homogenized RBL-1 cells; endogenous in cells; host or cells: RBL-1 cells (homogenate, 20,000xg supernatant)
T1 sequence (P12527 1-673): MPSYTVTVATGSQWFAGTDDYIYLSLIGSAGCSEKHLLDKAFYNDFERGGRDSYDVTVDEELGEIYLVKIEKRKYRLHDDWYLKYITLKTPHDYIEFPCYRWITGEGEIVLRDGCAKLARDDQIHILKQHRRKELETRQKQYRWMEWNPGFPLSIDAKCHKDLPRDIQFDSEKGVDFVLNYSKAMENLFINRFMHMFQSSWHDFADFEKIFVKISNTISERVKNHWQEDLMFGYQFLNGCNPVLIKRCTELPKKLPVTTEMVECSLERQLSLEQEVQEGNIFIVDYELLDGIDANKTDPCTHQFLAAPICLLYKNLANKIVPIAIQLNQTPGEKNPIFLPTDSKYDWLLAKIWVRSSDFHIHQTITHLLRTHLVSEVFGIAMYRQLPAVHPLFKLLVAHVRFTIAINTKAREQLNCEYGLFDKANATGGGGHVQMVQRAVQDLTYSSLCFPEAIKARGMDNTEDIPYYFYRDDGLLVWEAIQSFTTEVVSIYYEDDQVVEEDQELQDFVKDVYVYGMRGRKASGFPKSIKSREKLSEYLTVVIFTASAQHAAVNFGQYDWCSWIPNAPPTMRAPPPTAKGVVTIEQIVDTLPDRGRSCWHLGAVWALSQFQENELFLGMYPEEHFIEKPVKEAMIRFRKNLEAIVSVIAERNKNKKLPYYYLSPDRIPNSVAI
Type: biochemical
Description: Reactions were initiated by addition of radiolabelled arachidonic acid and terminated by acidification and ether extraction. Reaction products were separated from nonconverted substrate by thin layer chromatography and measured by liquid scintillation spectroscopy. All treatments were evaluated in triplicate incubations.

Compound	IC50 [nM]
CC(c1cc2ccc(OCc3ccccc3)cc2o1)N(O)C(N)=O (stereo not shown) [Example 51, N-hydroxy-N-[1-(6-benzyloxybenzo[b]fur-2-yl)ethyl] urea]	250
CC(C)C(=O)N(O)C(C)c1cc2ccccc2s1 (stereo not shown) [Example 21, N-hydroxy-N-(1-benzo[b]thien-2-ylethyl) 2-methylpropionamide]	380
CC(=O)N(O)C(C)c1cn(C)c2ccccc12 (stereo not shown) [Example 16, N-hydroxy-N-(1-(1-methylindol-3-yl)ethyl) acetamide]	2600
CC(C)CC(c1cc2ccccc2s1)N(O)C(N)=O (stereo not shown) [Example 48]	200
CC(=O)N(O)C(C)C1=Cc2ccccc2S1(=O)=O (stereo not shown) [Example 12, N-hydroxy-N-[1-benzo[b]thien-2-ylethyl) acetamide 1,1-dioxide]	21000
CC(C1Cc2ccccc2O1)N(O)C(N)=O (stereo not shown) [Example 42, N-hydroxy-N-[1-(2,3-dihydrobenzo[b]fur-yl)ethyl] urea]	8500
COc1cccc2cc(C(C)N(O)C(N)=O)oc12 (stereo not shown) [Example 34]	1900
CC(=O)N(O)C(C)c1csc2ccccc12 (stereo not shown) [Example 8, N-hydroxy-N-(1-benzo[b]thien-3-ylethyl) acetamide]	1400
CCNC(=O)N(O)C(C)c1cc2ccccc2s1 (stereo not shown) [Example 44, N-hydroxy-N-(1-benzo[b]thien-2-ylethyl) N'-ethylurea]	1800
CNC(=O)N(O)C(C)c1cn(C)c2ccccc12 (stereo not shown) [Example 18, N-hydroxy-N-(1-(1-methylindol-3-yl)ethyl) N'-methyl urea]	3700
CC(Cc1cc2ccccc2s1)N(O)C(N)=O (stereo not shown) [Example 30, N-hydroxy-N-(2-benzo[b]thien-2-yl-1-methylethyl) urea]	460
CC(c1cc2ccccc2n1C)N(O)C(N)=O (stereo not shown) [Example 24, N-hydroxy-N-(1-(1-methylindol-2-yl)ethyl) urea]	1600
Cc1ccc(C)c2sc(C(C)N(O)C(N)=O)cc12 (stereo not shown) [Example 28, N-hydroxy-N-[1-(4,7-dimethylbenzo[b]thien-2-yl)ethyl] urea]	400
CC(=O)N(O)CC=Cc1cc2ccccc2s1 [Example 31, N-hydroxy-N-(3-benzo[b]thien-2-ylprop-2-enyl) acetamide]	270
CN(C)C(=O)N(O)Cc1cc2ccccc2s1 [Example 7, N-hydroxy-N-benzo[b]thien-2-ylmethyl N',N'-dimethyl urea]	1100
CCNC(=O)N(O)Cc1cc2ccccc2s1 [Example 47, N-hydroxy-N-benzo[b]thien-2-ylmethyl-N'-ethyl urea]	1000
Cc1c(C(C)N(O)C(N)=O)sc2ccccc12 (stereo not shown) [Example 10, N-hydroxy-N-[1-(3-methylbenzo[b]thien-2-yl)ethyl] urea]	540
CC(c1cc2ccccc2n1S(C)(=O)=O)N(O)C(N)=O (stereo not shown) [Example 40, N-hydroxy-N-[1-(1-methanesulfonylindol-2-yl)ethyl] urea]	3000
CNC(=S)N(O)C(C)c1cc2ccccc2s1 (stereo not shown) [Example 45, N-hydroxy-N-(1-benzo[b]thien-2-ylethyl) N'-methyl thiourea]	190

Compound	IC50 [nM]
NC(=O)N(O)Cc1cc2ccccc2o1 [Example 49, N-hydroxy-N-benzo[b]fur-2-ylmethyl urea]	8200
CNC(=O)N(O)Cc1cc2ccccc2o1 [Example 50, N-hydroxy-N-benzo[b]fur-2-ylmethyl N'-methyl urea]	2300
NC(=O)N(O)CC=Cc1cc2ccccc2s1 [Example 32, N-hydroxy-N-(3-benzo[b]thien-2-ylprop-2-enyl) urea]	350
CC(c1cc2ccccc2s1)N(O)C(=O)N(C)C (stereo not shown) [Example 4, N-hydroxy-N-(1-benzo[b]thien-2-ylethyl) N'N'-dimethyl urea]	540
CNC(=O)N(O)C(C)c1cc2ccc(OCc3ccccc3)cc2o1 (stereo not shown) [Example 52, N-hydroxy-N-[1-(6-benzyloxybenzo[b]fur-2-yl)ethyl]N'-methyl urea]	200
CC(c1cc2ccccc2[nH]1)N(O)C(N)=O (stereo not shown) [Example 53]	2900
CC(c1cc2cc(Cl)cc(Cl)c2o1)N(O)C(N)=O (stereo not shown) [Example 33, N-hydroxy-N-[1-(5,7-dichlorobenzo[b]fur-2-yl)ethyl] urea]	360
CC(c1cc2ccccc2s1)N(O)C(=O)NO (stereo not shown) [Example 43, N,N'-dihydroxy-N-(1-benzo[b]thien-2-ylethyl) urea]	510
CC(c1cc2cc(Cl)ccc2[nH]1)N(O)C(N)=O (stereo not shown) [Example 38]	1000
CC(c1cc2cc(F)ccc2s1)N(O)C(N)=O (stereo not shown) [Example 29, N-hydroxy-N-[1-(5-fluorobenzo[b]thien-2-yl)ethyl] urea]	500
CC(c1cc2ccccc2s1)N(O)C(N)=S (stereo not shown) [Example 25, N-hydroxy-N-(1-benzo[b]thien-2-ylethyl) thiourea]	190
CNC(=O)N(O)Cc1cc2ccccc2s1 [Example 46, N-hydroxy-N-benzo[b]thien-2-ylmethyl N'-methyl urea]	1900
CC(=O)n1c(C(C)N(O)C(N)=O)cc2ccccc21 (stereo not shown) [Example 39, N-hydroxy-N-[1-(1-acetylindol-2-yl)ethyl] urea]	4000
CC(c1cc2ccccc2s1)N(O)C=O (stereo not shown) [Example 20, N-hydroxy-N-(1-benzo[b]thien-2-ylethyl) formamide]	3000
CCOc1cccc2cc(C(C)N(O)C(N)=O)oc12 (stereo not shown) [Example 36]	3500
CC(c1csc2ccccc12)N(O)C(N)=O (stereo not shown) [Example 9, N-hydroxy-N-(1-benzo[b]thien-3-ylethyl) urea]	1300
CC(c1cc2ccccc2o1)N(O)C(N)=O (stereo not shown) [Example 15, N-hydroxy-N-(1-benzo[b]fur-2-ylethyl) urea]	2700
CC(c1cn(C)c2ccccc12)N(O)C(N)=O (stereo not shown) [Example 17, N-hydroxy-N-(1-(1-methylindol-3-yl)ethyl) urea]	2800
